Laboratory results published in patent US20050181516A1, “Bioequivalence determination using expression profiling” (priority 2002, published 2005).
“Also recorded” adds a separate entry of the source.

Test system: gene expression (mRNA) in peripheral blood (lymphocytes)
Assay: Gene expression profiling (Affymetrix DNA microarrays) of blood samples of psoriatic patients before and after oral ASM981
Assay type: in vivo, human
Conditions: for Mean fold variation: day 13/14 vs baseline
Description: The dose used was 60 mg/day, given as 30 mg twice a day (b.i.d.). To make this dose the […] tablets were cut in half using a special cutter (Tablettenteiler NR.96) so as to obtain 30 mg of ASM981 or a matched amount of placebo.
ASM981 was evaluated as treatment for psoriasis using an oral dose of 60 mg (30 mg b.i.d) during a 4 weeks clinical study. The oral formulation used was a highly standardized oral dosage form that could be produced in large amounts and with a highly uniform composition, this was oral formulation A.
The cohort included 10 patients; 8 received oral formulation A and 2 received a placebo. Blood samples were collected before the first administration to establish the gene expression baseline and on days 13 or 14 after treatment with ASM981 or placebo and submitted to gene expression analysis in order to gain insights into the mechanisms of action of the compound.
The RNA from each of the blood samples was extracted and tested on individual DNA microarrays, thus allowing, for each patient, a comparison of gene expression before and after ASM981 treatment. […] Genes that were consistently modulated, i.e., change greater then a factor of two, were sorted in functional categories. Table 4 lists all the identified genes with their symbol, Unigene cluster number, protein accession number and the GenBank accession number for the sequence used to design the Affymetrix probes.
The extraction of the RNA from the samples, the preparation of the target, the hybridization and the analysis of the arrays, were performed according to the methods and protocols recommended by Affymetrix. Total RNA was extracted from the blood samples (lymphocytes) collected on days 0 and 14 using TRIZOL™ (Life Technologies), and purified through RNEASY™ columns (Qiagen) as needed. Good quality total RNA ([…]) was used to synthesize double-stranded cDNA using the SUPERSCRIPT CHOICE SYSTEM™ (Life Technologies). The cDNA was then in vitro transcribed (MEGASCRIPT™ T7 Kit, Ambion) to form biotin-labeled cRNA. The quality of the cRNA was checked on a test array according to the recommendation of Affymetrix. Next, […] of labeled cRNA were hybridized to the probe arrays for 16 hours at 45° C. Arrays were then washed according to the EukGE-WS2 protocol (Affymetrix), and stained with […] of streptavidin-phycoerythrin conjugate (Molecular Probes). The signal was antibody amplified with 2 mg/mL acetylated BSA (Life Technologies), 100 mM MES, 1 M [Na+], 0.05% Tween 20, 0.005% Antiofoam (Sigma), 0.1 mg/mL goat IgG and 0.5 mg/mL biotinylated antibody and re-stained with the streptavidin solution. After washing, the arrays were scanned twice with the GENE ARRAY® scanner (Affymetrix).
The data were analyzed comparing, for each individual patient, the gene expression levels before and after treatment. Only genes that were consistently modulated in at least 5 patients were considered as relevant. These variations were also compared with the gene expression changes observed in the placebo treated patients. During analysis, one chip (patient 44 before treatment) appeared to have very few correctly hybridized genes, and to introduce a bias into the analysis. This pair was excluded to establish average fold change.

CC[C@@H]1/C=C(\C)C[C@H](C)C[C@H](OC)[C@H]2O[C@@](O)(C(=O)C(=O)N3CCCC[C@H]3C(=O)O[C@H](/C(C)=C/[C@@H]3CC[C@H](Cl)[C@H](OC)C3)[C@H](C)[C@@H](O)CC1=O)[C@H](C)C[C@@H]2OC [ASM981, 33-Epichloro-33-desoxy-ascomycin]
Mean fold variation (4-1BB ligand (TNFSF9) mRNA, blood): +2.3 fold
Mean fold variation (ADP/ATP translocase (SLC25A6) mRNA, blood): −3.7 fold
Mean fold variation (ALu RNA binding protein (SRP14) mRNA, blood): −2.9 fold
Mean fold variation (B7 protein (B7) mRNA, blood): +2.9 fold
Mean fold variation (BAP 31 (DXS1357E) mRNA, blood): −9.2 fold
Mean fold variation (BRCA2 (gene symbol ARPC2) mRNA, blood): −6.5 fold
Mean fold variation (Butyrophilin BTF5 (BTN3A1) mRNA, blood): −10.6 fold
Mean fold variation (CAMLG (calcium modulating cyclophilin ligand) mRNA, blood): −5.2 fold
Mean fold variation (CAPL/S100A4 mRNA, blood): −37.8 fold
Mean fold variation (CDC10 homologue (CDC10) mRNA, blood): −6 fold
Mean fold variation (COX6B mRNA, blood): −13.6 fold
Mean fold variation (CSF-1 (CSF1) mRNA, blood): +3.1 fold
Mean fold variation (Calmodulin (CALM2) mRNA, blood): −28.8 fold
Mean fold variation (Clone × 101 (MAP1A) mRNA, blood): +2.2 fold
Mean fold variation (Cyclin D2 (CCND2) mRNA, blood): −16.6 fold
Mean fold variation (Cyclin D3 (CCND3) mRNA, blood): −7.2 fold
Mean fold variation (Cystatin A (CSTA) mRNA, blood): −2.4 fold
Mean fold variation (Cystatin C (CST3) mRNA, blood): −25 fold
Mean fold variation (Cytochrome c oxidase subunit IV (COX4) mRNA, blood): −15.8 fold
Mean fold variation (Cytochrome c oxidase subunit VIc (COX6C) mRNA, blood): −21.1 fold
Mean fold variation (DARC (FY) mRNA, blood): +7 fold
Mean fold variation (EF-1, Elongation factor 1 delta (EEF1D) mRNA, blood): −12.4 fold
Mean fold variation (Epididymal secretory protein mRNA, blood): −19.6 fold
Mean fold variation (FC-epsilon binding protein Galectin 3 (LGALS3) mRNA, blood): −21 fold
Mean fold variation (Farnesyl transferase (FNTA) mRNA, blood): −9 fold
Mean fold variation (Ferritin (FTL) mRNA, blood): −4.4 fold
Mean fold variation (G gamma 11 (GNG11) mRNA, blood): −6.2 fold
Mean fold variation (GPR-9 CCR9 mRNA, blood): +3.4 fold
Mean fold variation (Gamma actin (ACTG1) mRNA, blood): −3.4 fold
Mean fold variation (Glutamine synthase (GLUL) mRNA, blood): −2.6 fold
Mean fold variation (Glutathione peroxidase mRNA, blood): −5.4 fold
Mean fold variation (HLA-DR (HLA-DRA) mRNA, blood): −3.2 fold
Mean fold variation (HLA-E mRNA, first of 2 sequences, blood): −23.4 fold
Mean fold variation (HLA-E mRNA, second of 2 sequences, blood): −4.2 fold
Mean fold variation (HLA-F mRNA, blood): −10.2 fold
Mean fold variation (HLA-I A 26 (HLA-A) mRNA, blood): −4.1 fold
Mean fold variation (HLA-I C (HLA-C) mRNA, blood): −2.9 fold
Mean fold variation (HLH G0S8 (RGS2) mRNA, blood): −10.8 fold
Mean fold variation (HMG-17 (HMG17) mRNA, blood): −15.5 fold
Mean fold variation (Histone H2 (H2AFL) mRNA, blood): −42.6 fold
Mean fold variation (Histone H3.3 (H3F3A) mRNA, blood): −6.6 fold
Mean fold variation (Ii Invariant chain, CD74 mRNA, blood): −46.4 fold
Mean fold variation (KIAA0 151 (IKKE) mRNA, blood): +2.5 fold
Mean fold variation (KIAA0055 (USP8) mRNA, blood): +3.7 fold
Mean fold variation (Kallistatin mRNA, blood): +3.3 fold
Mean fold variation (L-selectin (SELL) mRNA, blood): −46.6 fold
Mean fold variation (LAMP-1 (LAMP1) mRNA, blood): −19.1 fold
Mean fold variation (LAPT5 Lysosomal associated protein (LAPTM5) mRNA, blood): −12.5 fold
Mean fold variation (LFA1a (ITGAL) mRNA, blood): −16.1 fold
Mean fold variation (LFA1b (ITGB2) mRNA, blood): −8.3 fold
Mean fold variation (Lactate dehydrogenase (LDHB) mRNA, blood): −17.1 fold
Mean fold variation (Laminin receptor (LAMR1) mRNA, blood): −7.3 fold
Mean fold variation (Leukotriene A4 hydrolase (LTA4H) mRNA, blood): −8 fold
Mean fold variation (Lone HH109 mRNA, blood): +2 fold
Mean fold variation (MIC-2 CD99 (MIC2) mRNA, blood): −65 fold
Mean fold variation (MTf1 Mitochondrial transcription factor (TFAM) mRNA, blood): +3.2 fold
Mean fold variation (Macrophilin 12 FKBP (FKBP1A) mRNA, blood): −66.2 fold
Mean fold variation (Mitochondrial ubiquinone binding protein (first entry, M26730) mRNA, blood): −5.4 fold
Mean fold variation (Mitochondrial ubiquinone binding protein (second entry of Table 11) mRNA, blood): +6.6 fold
Mean fold variation (Myosin light chain non muscle type mRNA, blood): −15.6 fold
Mean fold variation (Myosin regulatory light chain (MLCB) mRNA, blood): −8.5 fold
Mean fold variation (NRGN Neuragranin mRNA, blood): −3.1 fold
Mean fold variation (Neutrophil cytochrome b light chain (CYBA) mRNA, blood): −34.7 fold
Mean fold variation (Non muscle-type cofilin (CFL1) mRNA, blood): −2.9 fold
Mean fold variation (Nuclear factor Nf-IL6 (CEBPB) mRNA, blood): −6.8 fold
Mean fold variation (Nucleosome assembly protein (NAP1L1) mRNA, blood): −7.7 fold
Mean fold variation (PF-4 (PF4V1) mRNA, blood): −5.2 fold
Mean fold variation (Platelet glycoprotein IIb (ITGA2B) mRNA, blood): −5.2 fold
Mean fold variation (Platelet glycoprotein Ib mRNA, blood): −26.6 fold
Mean fold variation (Prosaposin (PSAP) mRNA, blood): −56.1 fold
Mean fold variation (Prostaglandin endoperoxide synthase 1 (PTGS1) mRNA, blood): −45.9 fold
Mean fold variation (Proteoglycan core protein (PRG1) mRNA, blood): +49 fold
Mean fold variation (Prothymosin alpha (PTMA) mRNA, blood): −71.7 fold
Mean fold variation (Pyrroline5 carboxylate reductase (PYCR1) mRNA, blood): +34 fold
Mean fold variation (RANTES (SCYA5) mRNA, blood): −5.3 fold
Mean fold variation (RSU (RSU1) mRNA, blood): −7.2 fold
Mean fold variation (Ribosomal protein L 12 (RPL12) mRNA, blood): −4.8 fold
Mean fold variation (Ribosomal protein S 7 (RPS7) mRNA, blood): −6.4 fold
Mean fold variation (SABP1 (elk4) (ELK4) mRNA, blood): +6.4 fold
Mean fold variation (Scaffold attachment protein (HNRPU) mRNA, blood): −7.1 fold
Mean fold variation (Selectin P ligand SELPLG mRNA, blood): −17.1 fold
Mean fold variation (Serine Threonine phosphatase (PPP2R1B) mRNA, blood): +5.1 fold
Mean fold variation (Single stranded DNA binding (SSBP) mRNA, blood): −8.5 fold
Mean fold variation (Small nuclear ribonucleoprotein (SNRPN) mRNA, blood): −2 fold
Mean fold variation (TAX REB 67 (ATF4) mRNA, blood): −22.6 fold
Mean fold variation (TF lia transcription factor mRNA, blood): −16.4 fold
Mean fold variation (TRMP2 Apolipoprotein J mRNA, blood): −6.8 fold
Mean fold variation (Taurine transporter (SLC6A6) mRNA, blood): +4.4 fold
Mean fold variation (Thioredoxin binding protein/Vit. D3 Up regulated protein (VDUP1) mRNA, blood): −5.4 fold
Mean fold variation (Thromboxane A2 receptor (TBXA2R) mRNA, blood): −9.3 fold
Mean fold variation (Thymosin beta (TMSB10) mRNA, blood): −7.5 fold
Mean fold variation (Transaldolase mRNA, blood): −3.1 fold
Mean fold variation (Translationally controlled tumor protein (TPT1) mRNA, blood): −3.2 fold
Mean fold variation (Tyrosine phosphatase (huPP1) (PTP4A2) mRNA, blood): −5.7 fold
Mean fold variation (Ubiquitin like protein (UBL4) mRNA, blood): −21.5 fold
Mean fold variation (Vacuolar H + ATPase (ATP6N1A) mRNA, blood): +1.8 fold
Mean fold variation (Vimentin (VIM) mRNA, blood): −7 fold
Mean fold variation (Wilms tumor related protein mRNA, blood): −4 fold
Mean fold variation (Zinc finger protein ZNF141 mRNA, blood): +3.2 fold
CD8+ T lymphocytes in the blood (after treatment): slightly more represented
proportion of T cell expressing CD3 in the blood (after treatment): does not affect
expression of genes of the Macrolactam target pathway (Macrophilin 12), cellular activation and proliferation (Histone2, Histone 3.3, cyclin D2) (among blood cells): down regulate
FKBP12 at the level of RNA synthesis (blood): strongly down regulated
Kallistatin expression (blood): up-regulated
expression of inflammatory mediators (Leukotriene A4 hydrolase, Prostaglandin endoperoxide synthase) (blood cells): strongly down regulate
genes involved in asthma physiopathology (RANTES, GALECTIN-3, Thromboxane A2 receptor) (blood cells): markedly down regulated
genes necessary for chemotaxis and cellular migration, including LFA-1, P-Selectin ligand and L-Selectin (blood cells): dramatic down regulation
CD3 expression level (blood, after treatment): unchanged
granzyme A and B expression (blood, after treatment): increase
genes involved in any known adverse side effect or toxicity pathway (expression profile, blood): no consistent pattern of alteration; also recorded: No gene linked to a possible adverse effect or to a toxicity pathway was found to be regulated
toxic effect in the expression profile (expression profile, blood): No obvious toxic effect
Mean fold variation (pM5 (PM5) mRNA, blood): −5.7 fold
